Results on 28 compounds are retold here after US11964949B2, “Substituted phenyloxazolidinones for antimicrobial therapy” (priority 2015, dated 2024).

SMILES strings stand for the structures. ≈ marks a conversion by molar mass, not a printed value. Like-named read-outs stand apart in the source and are kept apart here. Where only a bound is given, the exact number is not on record here.

The subject of experiment [1] is tuberculosis. The conditions noted are these: cited from earlier work.
In experiment [2] the test system is Mycobacterium tuberculosis H37Rv. Description: In vitro assay for antimicrobial susceptibility (microplate Alamar blue, MIC). Type of experiment: cell-based. The settings on record: Mycobacterium tuberculosis, read-out: MIC (μg/mL) against H37Rv.
Experiment [3] relates to mitochondrial protein synthesis (MPS) in H9C2 cells. Description: In vitro assay for MPS inhibition (COX-1 / SDH-A ELISA in H9C2 cells). Type of experiment: cell-based, rat. The conditions noted are these: Rattus norvegicus, read-out: IC50 (μM) MPS inhibition. A general note: In an ELISA, binding on a coated surface is turned into a signal by an enzyme label.
Where [4] appears, read: M. tuberculosis H37Rv, 7H9 broth, Alamar blue.
Where [5] appears, read: 120 h, H9C2 cells, 5 days incubation.

Consider `CC(=O)NC[C@H]1CN(c2ccc(N3CCOCC3)c(F)c2)C(=O)O1` [Linezolid], for which the “activity in murine models of tuberculosis” value in experiment [1] was “only modest activity”.

What is called IC50 is the concentration at which inhibition is half-maximal. As to `O=C1O[C@@H](Cn2nccn2)CN1c1ccc(N2CCCSCCC2)c(F)c1` [OTB-113, (R)-5-[(2H-1,2,3-triazol-2-yl)methyl]-3-[3-fluoro-4-(1,5-thiazocan-5-yl)phenyl]oxazolidin-2-one], the MIC in experiment [2] (setting [4]) is 2 µg/mL (≈ 5.11 µM). In experiment [3] (setting [5]), the IC50 was more than 100 µM.

`O=C(NC[C@H]1CN(c2ccc(N3CCCSCCC3)c(F)c2)C(=O)O1)c1ccco1` [OTB-117, (S)—N-[[3-(3-Fluoro-4-(1,5-thiazocan-5-yl)phenyl)-2-oxo-oxazolidin-5-yl]methyl]furan-2-carboxamide]: the MIC in experiment [2] (setting [4]) was 0.665 µg/mL (≈ 1.53 µM). For the same compound, in experiment [3] (setting [5]), the IC50 is 56.3 µM.

`CCCC(=O)NC[C@H]1CN(c2cc(F)c(N3C4CCC3C[S+]([O-])C4)c(F)c2)C(=O)O1` (stereo partly shown) [OBD-242]: in experiment [2] (H37RV), the MIC turned out to be 0.61 µg/mL (≈ 1.38 µM). Besides, in experiment [3] (H9c2, 120 h), the IC50 was more than 100 µM.

As for `O=C(NC[C@H]1CN(c2cc(F)c(N3CCCSCC3)c(F)c2)C(=O)O1)C1CCC1` [OTB-409], the MIC in experiment [2] (setting [4]) was found to be 0.477 µg/mL (≈ 1.12 µM). In addition, the IC50 in experiment [3] (setting [5]) was found to be 8.51 µM.

For `O=C(NC[C@H]1CN(c2cc(F)c(N3[C@@H]4CC[C@H]3CSC4)c(F)c2)C(=O)O1)C1CCC1` [OTB-509, N—(((S)-3-(4-((1R,5S)-3-Thia-8-aza-bicyclo[3.2.1]octan-8-yl)-3,5-difluorophenyl)-2-oxo-oxazolidin-5-yl)methyl)cyclobutanecarboxamide], the MIC in experiment [2] (H37RV) is 0.04 µg/mL (≈ 0.0914 µM). Also, the IC50 in experiment [3] (H9c2, 120 h) was found to be 5 µM.

For `CCCCS(=O)(=O)NC[C@H]1CN(c2ccc(N3CCCSCC3)c(F)c2)C(=O)O1` [OTB-116, (R)—N-[[3-(3-Fluoro-4-(1,4-thiazepan-4-yl)phenyl)-2-oxo-oxazolidin-5-yl]methyl]butane-1-sulfonamide], the MIC in experiment [2] (setting [4]) was determined as 3.81 µg/mL (≈ 8.56 µM). Further, the IC50 in experiment [3] (setting [5]) is more than 100 µM.

As for `O=C1OC(Cn2ccnn2)CN1c1cc(F)c(N2CC3CCC(C2)O3)c(F)c1` (stereo not shown) [OBD-054, 5-((1H-1,2,3-triazol-1-yl)methyl)-3-(4-(8-oxa-3-aza-bicyclo[3.2.1]octan-3-yl)-3,5-difluorophenyl)oxazolidin-2-one], in experiment [2] (setting [4]), the MIC was determined as 0.5 µg/mL (≈ 1.28 µM). In addition, the IC50 in experiment [3] (setting [5]) lay in the range of 6 to 31 µM.

Take `CCCC(=O)NC[C@H]1CN(c2ccc(N3C4CCC3CSC4)c(F)c2)C(=O)O1` [OBD-016, N—(((S)-3-(4-(3-thia-8-aza-bicyclo[3.2.1]octan-8-yl)-3-fluorophenyl)-2-oxooxazolidin-5-yl)methyl)butyramide]: in experiment [2] (H37RV), the MIC amounted to 0.486 µg/mL (≈ 1.19 µM). The IC50 in experiment [3] (H9c2, 120 h) was determined as 13 µM.

With `CCCC(=O)NC[C@H]1CN(c2ccc(N3CCCSCCC3)c(F)c2)C(=O)O1` [OBD-003, (S)—N-((3-(3-fluoro-4-(1,5-thiazocan-5-yl)phenyl)-2-oxooxazolidin-5-yl)methyl)buty ramide], the MIC in experiment [2] (setting [4]) worked out at 0.33 µg/mL (≈ 0.806 µM). In experiment [3] (setting [5]), the IC50 was more than 100 µM.

For `COC(=O)NC[C@H]1CN(c2ccc(N3C4CCC3C[S+]([O-])C4)c(F)c2)C(=O)O1` (stereo partly shown) [OTB-518], the MIC in experiment [2] (H37RV) is 3.5 µg/mL (≈ 8.51 µM). Also, the IC50 in experiment [3] (H9c2, 120 h) came out at 73 µM.

For `O=C(NC[C@H]1CN(c2cc(F)c(N3CC4(COC4)C3)c(F)c2)C(=O)O1)C1CC1` [OTB-233, (S)—N-((3-(3,5-Difluoro-4-(2-oxa-6-azaspiro[3.3]heptan-6-yl)phenyl)-2-oxo-oxazolidin-5-yl)methyl)cyclopropanecarboxamide], the MIC in experiment [2] (setting [4]) is 0.36 to 1 µg/mL (≈ 0.915 to 2.54 µM). In experiment [3] (setting [5]), the IC50 was 8.4 to 50 µM.

In the case of `CC(=O)NC[C@H]1CN(c2ccc(N3CC4CCC(C3)O4)c(F)c2)C(=O)O1` [OBD-110], the MIC in experiment [2] (setting [4]) stood at 0.45 µg/mL (≈ 1.24 µM). Further, the IC50 in experiment [3] (setting [5]) stood at 7 µM.

Consider `CC(C)(C)C(=O)NC[C@H]1CN(c2ccc(N3CCCSCCC3)c(F)c2)C(=O)O1` [OTB-121, (S)—N-[[3-(3-Fluoro-4-(1,5-thiazocan-5-yl)phenyl)-2-oxo-oxazolidin-5-yl]methyl]pivalamide], for which the MIC in experiment [2] (setting [4]) amounted to 2.79 µg/mL (≈ 6.58 µM). In addition, the IC50 in experiment [3] (setting [5]) amounted to 17.6 µM.

In the case of `CNC(=O)OC[C@H]1CN(c2cc(F)c(N3CC4(CSC4)C3)c(F)c2)C(=O)O1` [OTB-516-4A], the MIC in experiment [2] (H37RV) is 0.03 µg/mL (≈ 0.0751 µM). Besides, the IC50 in experiment [3] (setting [5]) was more than 100 µM.

As for `O=C1O[C@@H](Cn2ccnn2)CN1c1ccc(N2CCCSCC2)c(F)c1` [OTB-107, (R)-5-[(1H-1,2,3-Triazol-1-yl)methyl]-3-[3-fluoro-4-(1,4-thiazepan-4-yl)phenyl]oxazolidin-2-one], in experiment [2] (setting [4]), the MIC was 0.03 µg/mL (≈ 0.0795 µM). Further, the IC50 in experiment [3] (setting [5]) is 84.9 µM.

With `O=C1O[C@@H](CO)CN1c1cc(F)c(N2CC3(CSC3)C2)c(F)c1` [OTB-516, (R)-3-(3,5-Difluoro-4-(2-thia-6-azaspiro[3.3]heptan-6-yl)phenyl)-5-(hydroxymethyl) oxazolidin-2-one], the MIC in experiment [2] (setting [4]) turned out to be 0.465 µg/mL (≈ 1.36 µM). Moreover, the IC50 in experiment [3] (setting [5]) stood at 15.3 µM.

For `O=C(NC[C@H]1CN(c2ccc(N3CCCSCC3)c(F)c2)C(=O)O1)c1cccs1` [OTB-112, (S)—N-[(3-[3-Fluoro-4-(1,4-thiazepan-4-yl)phenyl]-2-oxo-oxazolidin-5-yl)methyl]thiophene-2-carboxamide], the MIC in experiment [2] (setting [4]) amounted to 0.5 µg/mL (≈ 1.15 µM). In experiment [3] (setting [5]), the IC50 is more than 100 µM.

As to `CCCC(=O)NC[C@H]1CN(c2ccc(N3CCC[S+]([O-])CCC3)c(F)c2)C(=O)O1` [OBD-004, (S)—N-((3-(3-Fluoro-4-(1-oxido-1,5-thiazocan-5-yl)phenyl)-2-oxooxazolidin-5-yl)methyl)butyramide], the MIC in experiment [2] (setting [4]) was found to be 3.34 µg/mL (≈ 7.84 µM). The IC50 in experiment [3] (setting [5]) was found to be 15.8 µM.

For the compound `CCCC(=O)NC[C@H]1CN(c2ccc(N3[C@@H]4CC[C@H]3C[S+]([O-])C4)c(F)c2)C(=O)O1` (stereo partly drawn) [OBD-017, N-(((5S)-3-(3-Fluoro-4-((1R,5S)-3-oxido-3-thia-8-azabicyclo[3.2.1]octan-8-yl)phenyl)-2-oxooxazolidin-5-yl)methyl)butyramide], the MIC in experiment [2] (H37RV) is 5.8 to 6.3 µg/mL (≈ 13.7 to 14.9 µM). In addition, the IC50 in experiment [3] (H9c2, 120 h) was determined as 41 µM.

Take `NC[C@H]1CN(c2ccc(N3C4CCC3CSC4)c(F)c2)C(=O)O1` [OBD-081, (5S)-3-(4-(3-thia-8-aza-bicyclo[3.2.1]octan-8-yl)-3-fluorophenyl)-5-(aminomethyl)oxazolidin-2-one]: the MIC in experiment [2] (H37RV) worked out at 0.47 µg/mL (≈ 1.39 µM). For the same compound, the IC50 in experiment [3] (H9c2, 120 h) is 77 µM.

As to `CC(=O)NC[C@H]1CN(c2ccc(N3C4CSCC3C4)c(F)c2)C(=O)O1` [OTB-227, N-(((5S)-3-(4-(3-Thia-6-azabicyclo[3.1.1]heptan-6-yl)-3-fluorophenyl)-2-oxo-oxazolidin-5-yl)methyl)acetamide], in experiment [2] (H37RV), the MIC stood at 0.889 µg/mL (≈ 2.43 µM). In addition, in experiment [3] (H9c2, 120 h), the IC50 stood at 15.2 µM.

For the compound `O=C1O[C@@H](Cn2ccnn2)CN1c1cc(F)c(N2CC3(CSC3)C2)c(F)c1` [OTB-245, (R)-5-((1H-1,2,3-Triazol-1-yl)methyl)-3-(3,5-difluoro-4-(2-thia-6-azaspiro[3.3]heptan-6-yl)phenyl)oxazolidin-2-one], the MIC in experiment [2] (setting [4]) fell in the range of 0.03 to 0.5 µg/mL (≈ 0.0763 to 1.27 µM). Also, the IC50 in experiment [3] (setting [5]) lay in the range of 25 to 35 µM.

Regarding `CC(C)(C)C(=O)NC[C@H]1CN(c2ccc(N3CCCSCC3)c(F)c2)C(=O)O1` [OTB-115, (S)—N-[[3-(3-Fluoro-4-(1,4-thiazepan-4-yl)phenyl)-2-oxo-oxazolidin-5-yl]methyl]pivalamide], the MIC in experiment [2] (setting [4]) was 3.73 µg/mL (≈ 9.12 µM). In addition, in experiment [3] (setting [5]), the IC50 is more than 100 µM.

For `COC(=O)NC[C@H]1CN(c2cc(F)c(N3[C@@H]4CC[C@H]3CSC4)c(F)c2)C(=O)O1` [OTB-512, Methyl (((S)-3-(4-((1R,5S)-3-thia-8-azabicyclo[3.2.1]octan-8-yl)-3,5-difluorophenyl)-2-oxo-oxazolidin-5-yl)methyl)carbamate], in experiment [2] (H37RV), the MIC turned out to be 0.063 µg/mL (≈ 0.152 µM). Further, in experiment [3] (H9c2, 120 h), the IC50 was determined as 42.5 µM.

On to `CC(=O)NC[C@H]1CN(c2cc(F)c(N3CCCSCC3)c(F)c2)C(=O)O1` [OTB-407, (S)—N-((3-(3,5-Difluoro-4-(1,4-thiazepan-4-yl)phenyl)-2-oxo-oxazolidin-5-yl)methyl)acetamide], for which, in experiment [2] (setting [4]), the MIC was determined as 0.097 µg/mL (≈ 0.252 µM). The IC50 in experiment [3] (setting [5]) stood at 3.08 µM.

Take `O=C(NC[C@H]1CN(c2ccc(N3CC4(COC4)C3)c(F)c2)C(=O)O1)C1CC1` [OTB-238, (S)—N-((3-(3-Fluoro-4-(2-oxa-6-azaspiro[3.3]heptan-6-yl)phenyl)-2-oxo-oxazolidin-5-yl)methyl)cyclopropanecarboxamide]: the MIC in experiment [2] (setting [4]) lay in the range of 2 to 4 µg/mL (≈ 5.33 to 10.7 µM). For the same compound, the IC50 in experiment [3] (setting [5]) came to 20 µM.

For the compound `CC(=O)NC[C@H]1CN(c2cc(F)c(N3CC4(C3)C[S+]([O-])C4)c(F)c2)C(=O)O1` [OTB-520], the MIC in experiment [2] (setting [4]) was found to be 0.4 µg/mL (≈ 1 µM). The IC50 in experiment [3] (setting [5]) came to 17 µM.
